From patent US9024044B2, “Heteroarylcarboxylic acid ester derivative” (Ajinomoto Co., Inc., priority 2012, dated 2015)
Counter-ions that a name gives are not always drawn.

Legend:
Format in all cases: biochemical
[1] = target: recombinant human enteropeptidase (Homo sapiens (Human), UniProt P98073); assay: Measurement of enteropeptidase inhibitory activity; conditions: substrate Gly-Asp-Asp-Asp-Asp-Lys-β-Naphtylamide, Tris-HCl pH 8.0, Dixon plot
Protocol: Measurement of Enteropeptidase Inhibitory Activity
Using a 96 well plate (#3915, Costar), a test compound (25 μL), 400 mM Tris-HCl buffer (pH 8.0, 25 μL) and 0.5 mg/mL fluorescence enzyme substrate (Gly-Asp-Asp-Asp-Asp-Lys-β-Naphtylamide, 25 μL) were mixed, and recombinant human enteropeptidase (R&D Systems, Inc., 25 μL) was added. Using a fluorescence plate reader fmax (Molecular Devices, Inc.), the reaction rate was measured from the time-course changes at excitation wavelength 320 nm and fluorescence wavelength 405 nm. The Ki value was calculated from the concentration of the test compound, reciprocal of reaction rate, and Km value of the enzyme substrate, and by using Dixon plot.

human trypsin [2] = assay: Measurement of trypsin inhibitory activity; conditions: substrate Boc-Phe-Ser-Arg-AMC, Tris-HCl pH 8.0, Dixon plot
Protocol: (§1) Measurement of Trypsin Inhibitory Activity
(§2) Using a 96 well plate (#3915, Costar), a test compound (25 μL) was mixed with 20 μM fluorescence enzyme substrate (Boc-Phe-Ser-Arg-AMC, 50 μL) mixed with 200 mM Tris-HCl buffer (pH 8.0), and human trypsin (Sigma, 25 μL) was added. Using a fluorescence plate reader fmax (Molecular Devices, Inc.), the reaction rate was measured from the time-course changes at excitation wavelength 355 nm and fluorescence wavelength 460 nm. The Ki value was calculated from the concentration of the test compound, reciprocal of reaction rate, and Km value of the enzyme substrate, and by using Dixon plot.

human trypsin [3] = target: human trypsin (Homo sapiens, UniProt P07477); assay: Measurement of trypsin inhibitory activity; conditions: substrate Boc-Phe-Ser-Arg-AMC, Tris-HCl pH 8.0, Dixon plot
Protocol: as §1, §2

Chain of recombinant human enteropeptidase (P98073 whole entry): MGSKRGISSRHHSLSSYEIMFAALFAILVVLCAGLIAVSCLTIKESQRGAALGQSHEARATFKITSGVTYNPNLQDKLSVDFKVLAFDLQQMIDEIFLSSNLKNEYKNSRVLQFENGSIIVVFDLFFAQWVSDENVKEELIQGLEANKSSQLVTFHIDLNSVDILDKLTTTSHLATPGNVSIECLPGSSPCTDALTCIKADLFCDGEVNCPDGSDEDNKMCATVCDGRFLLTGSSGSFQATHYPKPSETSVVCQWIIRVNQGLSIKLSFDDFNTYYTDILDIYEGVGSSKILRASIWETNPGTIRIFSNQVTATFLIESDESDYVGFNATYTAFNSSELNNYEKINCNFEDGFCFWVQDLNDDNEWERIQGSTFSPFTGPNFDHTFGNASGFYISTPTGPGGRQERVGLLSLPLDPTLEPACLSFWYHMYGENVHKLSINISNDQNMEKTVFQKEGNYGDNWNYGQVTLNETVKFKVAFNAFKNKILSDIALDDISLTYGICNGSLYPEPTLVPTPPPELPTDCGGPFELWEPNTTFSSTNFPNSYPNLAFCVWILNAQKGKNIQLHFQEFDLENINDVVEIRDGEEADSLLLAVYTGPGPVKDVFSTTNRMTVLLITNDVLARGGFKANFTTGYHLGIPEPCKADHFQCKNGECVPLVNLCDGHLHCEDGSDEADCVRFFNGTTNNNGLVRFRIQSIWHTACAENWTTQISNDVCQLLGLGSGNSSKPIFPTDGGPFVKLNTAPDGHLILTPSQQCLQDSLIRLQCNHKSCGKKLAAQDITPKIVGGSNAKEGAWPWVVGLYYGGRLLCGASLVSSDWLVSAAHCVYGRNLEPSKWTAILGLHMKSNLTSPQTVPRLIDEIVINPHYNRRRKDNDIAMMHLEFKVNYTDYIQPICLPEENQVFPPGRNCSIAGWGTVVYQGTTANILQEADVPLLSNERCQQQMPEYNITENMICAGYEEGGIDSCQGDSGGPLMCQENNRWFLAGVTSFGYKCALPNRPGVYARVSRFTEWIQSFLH

Row | Compound | Ki [1] | Ki (human trypsin [2]) | Ki (human trypsin [3])
1 | CC(C)(Cc1ccc(C(=O)Oc2ccc(C(=N)N)cc2F)s1)C(=O)NCCC#N [Compound 63] | 2.9 nM | 3.65 nM | –
2 | CC[C@H](NC(=O)C(CC)(CC)Cc1ccc(C(=O)Oc2ccc(C(=N)N)cc2F)s1)C(=O)O [Compound 28] | 0.65 nM | 1.93 nM | –
3 | CC(C)(Cc1ccc(C(=O)Oc2ccc(C(=N)N)cc2F)s1)C(=O)N(CC(=O)O)CC1CC1 [Compound 76] | 0.67 nM | 2.01 nM | –
4 | CCCN(CC(=O)O)C(=O)C(C)(C)Cc1ccc(C(=O)Oc2ccc(C(=N)N)cc2F)s1 [Compound 10, N-{3-[5-(4-amidino-2-fluoro-phenoxycarbonyl)thiophen-2-yl]-2,2-dimethylpropionyl}-N-propylglycine hydrochloride] | 0.49 nM | 1.5 nM | –
5 | CCC(CC)(Cc1ccc(C(=O)Oc2ccc(C(=N)N)cc2F)s1)C(=O)N[C@@H](CC(N)=O)C(=O)O [Compound 44] | 0.67 nM | 1.69 nM | –
6 | CCC(CC)(Cc1ccc(C(=O)Oc2ccc(C(=N)N)cc2F)s1)C(=O)NCCCCC(=O)O [Compound 62] | 0.98 nM | 5.17 nM | –
7 | CCC(CC)(Cc1ccc(C(=O)Oc2ccc(C(=N)N)cc2F)s1)C(=O)NCc1nnn[nH]1 [Compound 81] | 1.2 nM | 3.54 nM | –
8 | CCC(CC)(Cc1ccc(C(=O)Oc2ccc(C(=N)N)cc2F)s1)C(=O)N[C@@H]1COC(=O)C1 [Compound 34] | 2.56 nM | 2.73 nM | –
9 | CCC(CC)(Cc1ccc(C(=O)Oc2ccc(C(=N)N)cc2F)s1)C(=O)NC1(C(=O)O)CCC1 [Compound 80] | 1.33 nM | 4.67 nM | –
10 | CCC[C@H](NC(=O)C(CC)(CC)Cc1ccc(C(=O)Oc2ccc(C(=N)N)cc2F)s1)C(=O)O [Compound 29] | 1.18 nM | 3.84 nM | –
11 | CCC(CC)(Cc1ccc(C(=O)Oc2ccc(C(=N)N)cc2F)s1)C(=O)NCC(=O)NCC(=O)O [Compound 77] | 0.69 nM | 1.42 nM | –
12 | CCC(CC)(Cc1ccc(C(=O)Oc2ccc(C(=N)N)cc2F)s1)C(=O)N[C@H](CCC(=O)O)C(=O)O [Compound 43] | 0.42 nM | 1.96 nM | –
13 | CC(C)(Cc1ccc(C(=O)Oc2ccc(C(=N)N)cc2F)s1)C(=O)NC1(C(=O)O)CC1 [Compound 57] | 0.67 nM | 1.01 nM | –
14 | CC(C)(Cc1ccc(C(=O)Oc2ccc(C(=N)N)cc2F)s1)C(=O)N1CCC[C@H]1CC(=O)O [Compound 41] | 1.58 nM | 3.88 nM | –
15 | CC(C)(Cc1ccc(C(=O)Oc2ccc(C(=N)N)cc2F)s1)C(=O)NCc1nnn[nH]1 [Compound 65] | 0.53 nM | 0.75 nM | –
16 | C=CCN(CCS(=O)(=O)O)C(=O)C(C)(C)Cc1ccc(C(=O)Oc2ccc(C(=N)N)cc2F)s1 [Compound 23, N-allyl-N-{3-[5-(4-amidino-2-fluoro-phenoxycarbonyl)-thiophen-2-yl]-2,2-dimethylpropionyl}taurine] | 1.81 nM | 3.17 nM | –
17 | CCC(CC)(Cc1ccc(C(=O)Oc2ccc(C(=N)N)cc2F)s1)C(=O)NCCCC(=O)O [Compound 30] | 0.94 nM | 2.73 nM | –
18 | CC(C)(Cc1ccc(C(=O)Oc2ccc(C(=N)N)cc2F)s1)C(=O)NCC(=O)O [Compound 3] | 0.29 nM | 0.42 nM | –
19 | CC(C)(Cc1ccc(C(=O)Oc2ccc(C(=N)N)cc2F)s1)C(=O)Nc1ccc(O)c(C(=O)O)c1 [Compound 47] | 0.53 nM | 0.92 nM | –
20 | CC[C@H](C)[C@@H](CC(=O)O)NC(=O)C(CC)(CC)Cc1ccc(C(=O)Oc2ccc(C(=N)N)cc2F)s1 [Compound 49, N-{3-[5-(4-amidino-2-fluoro-phenoxycarbonyl)thiophen-2-yl]-2,2-diethylpropionyl}-beta-homoisoleucine hydrochloride] | 3.26 nM | 1.97 nM | –
21 | CC(C)(Cc1ccc(C(=O)Oc2ccc(C(=N)N)cc2F)s1)C(=O)Nc1ccc(C(=O)O)cc1 [Compound 31] | 1.08 nM | 2.89 nM | –
22 | CCC(CC)(Cc1ccc(C(=O)Oc2ccc(C(=N)N)cc2F)s1)C(=O)N[C@@H](Cc1ccccc1)C(=O)O [Compound 16] | 1.1 nM | 8.3 nM | –
23 | CCC(CC)(Cc1ccc(C(=O)Oc2ccc(C(=N)N)cc2F)s1)C(=O)N[C@H](C(=O)O)C(C)C [Compound 13] | 1.56 nM | 5.18 nM | –
24 | CC(C)(Cc1ccc(C(=O)Oc2ccc(C(=N)N)cc2F)s1)C(=O)N[C@@H](CO)C(=O)O [Compound 4] | 0.46 nM | – | 0.75 nM
25 | CC(C)(Cc1ccc(C(=O)Oc2ccc(C(=N)N)cc2F)s1)C(=O)N[C@H](C(=O)O)c1ccccc1 [Compound 37] | 0.96 nM | – | 1.51 nM
26 | CCC(CC)(Cc1ccc(C(=O)Oc2ccc(C(=N)N)cc2F)s1)C(=O)NCc1ccc(C(=O)O)cc1 [Compound 53] | 2.69 nM | 9.27 nM | –
27 | CC(C)(Cc1ccc(C(=O)Oc2ccc(C(=N)N)cc2F)s1)C(=O)NC1(C(=O)O)CCC1 [Compound 56] | 0.51 nM | 1.49 nM | –
28 | CC(C)(Cc1ccc(C(=O)Oc2ccc(C(=N)N)cc2F)s1)C(=O)Nc1cccc(C(=O)O)c1 [Compound 32] | 1.43 nM | 0.7 nM | –
